Experimental data as given in article PMC12040169 (PLOS Biology, 2025).

Assay: in vitro
Details: human, hela cells, % viability

Compound | viability at 28.5 h, 10 µM | viability at 28.5 h, 10 µM (bulk resorufin, single well)
Cc1ccc2[nH]c3c(c2c1)CCOC31CCN(CCOc2cccc3c2CCCC3=O)CC1 [CBK040230] | 83.3% | –
COC(=O)CCC(=O)N1CCC2(CCN(Cc3ccccc3)C2)C1 (stereo not shown) [CBK136852] | 116% | –
O=C(c1ccc2[nH]c(=O)[nH]c2c1)N1CCC2(CCN(C(=O)c3cc(F)c(F)cc3F)C2)C1 (stereo not shown) [CBK131407] | 95.9% | –
O=C(c1nccs1)C1CCN(C(=O)CC2CCCC2)CC1 [CBK284207] | 107% | –
COc1ccccc1NC(=O)Cn1cc(C(=O)c2cccs2)c2ccccc21 [CBK268256] | 98.6% | –
CC(C)(C)NC(=O)N1CCC(Nc2nccc(C(F)(F)F)n2)CC1 [CBK028788] | 113% | –
COc1ccc(OCC(=O)Nc2ccc3oc(-c4ccc(OC)c(Br)c4)nc3c2)cc1 [CBK263913] | 99.4% | –
O=C(O)C1CCCN1S(=O)(=O)c1ccc([N+](=O)[O-])cc1 (stereo not shown) [CBK261424] | 89.7% | –
Fc1ccc(-c2ccc3c(c2)COC2(CCNCC2)O3)c(F)c1 [CBK060917] | – | 96%
Cc1ccc(SCCCNCCN(C)C)cc1 [CBK267807C] | 92.2% | –
COc1ccc(OC)c(NC(=O)CN2CCN(c3ccccn3)CC2)c1 [CBK262978] | 83.7% | –
CC(C)Nc1cncc(OCC2CN(C)CCN2C)n1 (stereo not shown) [CBK115602] | 87.7% | –
O=C(NC(c1ccc(Cl)cc1)c1cnccn1)C1CCN(Cc2ccc(Oc3ccccc3)cc2)CC1 (stereo not shown) [CBK148023] | 108% | –
CCn1cc(C2CN(S(=O)(=O)c3cccc(C(C)C)c3)CCO2)cn1 (stereo not shown) [CBK304227] | 105% | –
CCn1nc(C)c(C(C)NC(=O)c2ccn(C(F)F)n2)c1C (stereo not shown) [CBK281534] | 79.8% | –
O=[N+]([O-])c1ccc(S(=O)(=O)Nc2cccc3[nH]ccc23)cc1 [CBK159550] | 87.1% | –
COC(=O)c1c(NC(=S)Nc2ccc(Br)cn2)sc2c1CCC2 [CBK266862] | 92.9% | –
CSc1nc(O)cc(C(F)(F)F)n1 [CBK001401] | 112% | –
Cc1[nH]c(=O)[nH]c(=O)c1S(=O)(=O)N1CCOCC1 [CBK261060] | 96.1% | –
N#CCCN(CC1CCCO1)S(=O)(=O)c1ccc(OC(F)(F)F)cc1 (stereo not shown) [CBK044405] | 91.5% | –
CN(C)C(=O)c1cc(Br)cnc1NCc1ccc2c(c1)OCO2 [CBK076293] | 110% | –
O=C(Nc1cccnc1)c1cc2cc(F)ccc2[nH]1 [CBK107272] | 93.2% | –

Compound | viability at 28.5 h, 10 µM | viability at 28.5 h, 10 µM (bulk resorufin, single well)
c1ccc(OCc2nn3c(Cn4cnc5ccccc54)nnc3s2)cc1 [CBK268446] | 99.2% | –
CCOc1ccc(C(=O)Nc2ccc(Cc3ccncc3)cc2)cc1[N+](=O)[O-] [CBK262867] | 114% | –
Cc1nc2c(C(=O)NCCOCCO)cnn2c(C)c1Cc1ccc(F)c(Cl)c1 [CBK167457] | 96.3% | –
CC(C)Oc1cccc2cccc(C(O)CN(C)C)c12 (stereo not shown) [CBK009892] | 98.5% | –
CC(=O)N1CCC[C@@H]1C(=O)N1CC[C@@H]2NC(=O)[C@H](Cc3ccccc3)NC(=O)C3(C/C=C/C[C@@H]2C1)CCOCC3 [CBK292195] | 104% | –
Cc1cc(Cl)ccc1OCCCc1nnc(S)n1C [CBK288396] | 85.1% | –
CN1CCN(c2ccc([N+](=O)[O-])c(NCCCO)c2)CC1 [CBK261846C] | 86.5% | –
Cc1cccc(-c2ncc(NC(=O)c3ccccn3)nc2-c2ccc(N)cc2)c1 [CBK036694] | 93.3% | –
O=C(c1cscn1)N1C2CCC1CC(O)(c1ccco1)C2 (stereo not shown) [CBK284135] | 105% | –
COc1ccc([C@@]23CC[C@@H](NC(=O)Nc4ccccc4C(F)(F)F)C[C@@H]2N(C)CC3)cc1OC [CBK036466T] | 106% | –
Fc1ccc(CCNc2ccc3nncn3n2)cc1 [CBK287909] | 88.2% | –
CCCC/C=C/c1nccnc1NCCc1ccncc1 [CBK037370] | 99.9% | –
Cn1c(C(=O)NCCc2cnccn2)cc2cc(Cl)ccc21 [CBK281575] | 90.9% | –
CC(=O)N1CCc2sccc2C1c1ccccc1NC(=O)c1ccco1 (stereo not shown) [CBK286436] | 98.1% | –
CNC(=O)C1(Cc2cccc(-c3cccs3)c2)CCN(C(=O)CCc2ccccc2)CC1 [CBK285913] | 90.4% | –
O=C(NC(C(=O)N/N=C/c1ccccc1O)c1n[nH]c(=O)c2ccccc12)c1ccccc1 (stereo not shown) [CBK261117] | 113% | –
CCC1CCc2c(sc(NC(=O)c3cc(-c4ccc(Cl)s4)nc4ccccc34)c2C(N)=O)C1 (stereo not shown) [CBK262646] | 88.9% | –
CCCC/C=C/c1cn2ccnc2c(NCCc2cccnc2)n1 [CBK066235] | 105% | –
O=C(c1c[nH]c2ccccc12)N1CCC(Cc2ccccc2)CC1 [CBK200180] | 91.3% | –
S=C(NCc1ccc(Cl)cc1)Nc1ccncc1 [CBK016651] | 79.5% | –
NS(=O)(=O)c1ccc(NC(=O)CSc2ccc([N+](=O)[O-])cn2)cc1 [CBK269002] | 95% | –
CC(O)c1cccc(NC(=O)CCC(=O)O)c1 (stereo not shown) [CBK264691] | 94.1% | –

Compound | viability at 28.5 h, 10 µM | viability at 28.5 h, 10 µM (bulk resorufin, single well)
Cc1ccc(S(=O)(=O)N2CCOCC2)cc1C(=O)Oc1cccc2cccnc12 [CBK269726] | 98% | –
C=CCn1c(SCC(=O)N2CCN(c3ccccc3)CC2)nnc1-c1ccc(N)cc1 [CBK267956] | 99.8% | –
CN1CCN(c2ccccc2NC(=O)c2ccc3ccccc3c2)CC1 [CBK268486] | 96.1% | –
O=C(O)CCC(=O)NCCCc1ccccc1 [CBK265465] | 86.7% | –
CCNC(=O)N1CCc2c([nH]c3ccc(OC)cc23)C12CCN(CCOc1ccccc1)C2 (stereo not shown) [CBK061690] | 93% | –
CCNC(=O)N1CC[C@H]2CC(=O)N(Cc3cccnc3)CC[C@H]2C1 [CBK288792] | 85.6% | –
CC(c1ccc(Cl)cc1Cl)N(C)C(=O)Cn1cnc2c1CCCC2 (stereo not shown) [CBK306387] | 88% | –
Cc1c[n+]2ccsc2n1Cc1ccccc1C#N [CBK260951B] | 116% | –
COCCNC(=O)c1cc(C2CN(CCc3ccccc3)CCO2)nc2ccccc12 (stereo not shown) [CBK285622] | 99.4% | –
Cc1nn(C)c(Cl)c1S(=O)(=O)Nc1nn(Cc2ccc(C#N)cc2)c2ccccc12 [CBK048185] | 111% | –
COc1ccc(CN(Cc2ccc(NC(C)=O)cc2)[C@@H]2COC[C@H]2c2ccc(F)cc2)cc1 [CBK286488] | 105% | –
Cc1nc(N2CCN(C)CC2)ncc1C(=O)NCCSc1cnn[nH]1 [CBK306623] | 88.2% | –
Nc1n[nH]c(SCC(=O)Nc2ccc(Br)cc2Cl)n1 [CBK267875] | 95.3% | –
O=C1CN(Cc2ccccc2)C(=O)N1CC1CCCCC1 [CBK162367] | 93.7% | –
COc1ccc(N2CC(C(=O)Nc3ccc(C(=O)O)cc3)CC2=O)cc1 (stereo not shown) [CBK268782] | 88% | –
O=C(NCc1c(F)cccc1F)C1(c2ccccc2)CCCC1 [CBK149527] | 91.7% | –
CSCCN1CCC(Oc2nccnc2OCCN2CCOCC2)CC1 [CBK082935] | 92.9% | –
Cc1[nH]c(=O)[nH]c(=O)c1Cc1ccccc1 [CBK113244] | 113% | –
c1ccc(CCNc2cc(-c3cccc4ccccc34)ncn2)nc1 [CBK037762] | 94.5% | –
CCN(CC)c1ccc(NC(=O)c2cc(-c3cccnc3)cnc2NCCN2CCOCC2)cc1 [CBK126566] | 105% | –
COc1ccc(-c2ccc(OC)cc2C(=O)Nc2cccc(-n3cccn3)c2)cc1 [CBK285818] | 94.6% | –
COc1cc(CNC(=O)N2CCN(C3CCN(C)CC3)CC2)cc(OC)c1OC [CBK155893] | 93.3% | –

Compound | viability at 28.5 h, 10 µM | viability at 28.5 h, 10 µM (bulk resorufin, single well)
O=C(NCc1cccc2ccccc12)N1CCCC(CO)C1 (stereo not shown) [CBK156035] | 112% | –
COc1cc(-c2cnc3[nH]c(=O)n(CCc4ccncc4)c3n2)cc(OC)c1OC [CBK064620] | 96.9% | –
CCNC(=O)c1ccc(-n2cccn2)c(C#Cc2ccccn2)c1 [CBK283125] | 111% | –
CN1CCN(C(=O)Cn2c(-c3cccs3)cc3cccnc32)CC1 [CBK282558] | 97% | –
Cc1ccc(Cn2nc(NC(=O)c3ccccc3)c3ccccc32)cc1 [CBK048213] | 97.5% | –
O=C(O)CC(C(=O)N1CCOCC1)N1CCCCC1 (stereo not shown) [CBK287074] | 98.7% | –
COc1ccccc1N1CCN(C(=O)c2c(Cl)cnn2C)CC1 [CBK288247] | 94.3% | –
Cc1nc(S(=O)(=O)CCn2cccn2)n(C2CCCCC2)c1C [CBK305217] | 102% | –
Cc1cccc(C(=O)Nc2cc(NC(=O)c3cccc(C)c3)cc(C(=O)O)c2)c1 [CBK269649] | 98% | –
COc1cc(NC(=O)c2ccco2)c(C(=O)O)cc1OC [CBK076926] | 91.6% | –
Cn1c(=O)oc2cc(S(=O)(=O)N3CCN(C4CCCCC4)CC3)ccc21 [CBK268865] | 107% | –
COc1ccccc1-c1[nH]nc(O)c1Cc1c(Cl)cccc1Cl [CBK107933] | 86.1% | –
O=C(CSc1nnc(-c2ccc(Cl)cc2)n1-c1ccccc1)N/N=C/c1ccccn1 [CBK263001] | 94.6% | –
Oc1c(CN2CCN(Cc3ccc4cccnc4c3O)CC2)ccc2cccnc12 [CBK261994] | 86.1% | –
CC(C)(C)NC(=O)Cn1c(-c2cccs2)cc2cccnc21 [CBK282455] | 97.1% | –
O=C(COc1ccc(-c2cnc3ccccc3n2)cc1)c1cccc([N+](=O)[O-])c1 [CBK266367] | 86.8% | –
COc1ccc(OC(=O)c2cccc(F)c2)c(C(C)=O)c1 [CBK088044] | 89% | –
O=C1CSC(c2cccnc2)N1CCc1ccccn1 (stereo not shown) [CBK017292] | 96.7% | –
O=C(NCCCN1CCOCC1)c1ccc2nccnc2c1 [CBK268704] | 114% | –
CC1CCc2c(sc(NC(=O)CCN3C(=O)c4ccccc4C3=O)c2C(N)=O)C1 (stereo not shown) [CBK263667] | 94.4% | –
CCC(CO)Nc1cncc(-c2ccc(C(N)=O)cc2)n1 (stereo not shown) [CBK065577] | 100% | –
CCCC/C=C/c1cnc2[nH]c(=O)n(Cc3ccc(S(N)(=O)=O)cc3)c2n1 [CBK064956] | 98.8% | –
